Laboratory results from the supplement of paper PMC10733146.

Columns and labels:
Assay in all cases: viability relative to DMSO control (fraction); higher = less drug effect (more viable cells)
Conditions in all cases: 48 h
[1] = compound: CCN(CCCOc1ccc2c(Nc3cc(CC(=O)Nc4cccc(F)c4)[nH]n3)ncnc2c1)CCOP(=O)(O)O [Barasertib]
How it was run: (§1)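 Viability was measured as CellTiter-Glo luminescence relative to the median of 16 inner DMSO wells. Primary mononuclear tumour cells, fresh or cryopreserved, were Ficoll-isolated from blood or bone marrow or taken from processed lymph node. They were seeded at 4 × 10^4 cells per well into 384-well plates holding pre-plated compounds at five concentrations, one well each, and kept in RPMI-1640 with penicillin/streptomycin, L-glutamine and human serum at 37 °C and 5% CO2 for 48 h.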

[2] = compound: O=C1CCC(N2C(=O)c3ccccc3C2=O)C(=O)N1 [Thalidomide]
How it was run: as §1

[3] = compound: CC(C)N(CCCNC(=O)Nc1ccc(C(C)(C)C)cc1)C[C@H]1O[C@@H](n2cc(Br)c3c(N)ncnc32)[C@H](O)[C@@H]1O [SGC 0946]
How it was run: as §1

[4] = compound: CCS(=O)(=O)N1CCC([C@@H](C)n2c(C)c(C(=O)NCc3c(OC)cc(C)[nH]c3=O)c3ccccc32)CC1 [CPI-169]
How it was run: as §1

[5] = compound: Nc1cccc2c1C(=O)N(C1CCC(=O)NC1=O)C2=O [Pomalidomide]
How it was run: as §1

[6] = compound: COc1cc([C@@H]2c3cc4c(cc3[C@@H](O[C@@H]3O[C@@H]5CO[C@@H](C)O[C@H]5[C@H](O)[C@H]3O)[C@H]3COC(=O)[C@H]23)OCO4)cc(OC)c1O [Etoposide]
How it was run: as §1

[7] = compound: O=C(O)CCCc1ccc(N(CCCl)CCCl)cc1 [Chlorambucil]
How it was run: as §1

[8] = compound: C[C@H]1C[C@@H](n2c(Nc3ccc(OC(F)(F)F)cc3)nc3cc(CCC(=O)O)ccc32)CC(C)(C)C1
How it was run: as §1

[9] = compound: c1cn2cc(-c3ccc4cn[nH]c4c3)nc(Nc3ccc(N4CCOCC4)cc3)c2n1 [Entospletinib]
How it was run: as §1

[10] = compound: CC(=O)c1c(C)c2cnc(Nc3ccc(N4CCNCC4)cn3)nc2n(C2CCCC2)c1=O [Palbociclib]
How it was run: as §1

[11] = compound: O=C(Nc1ccc2[nH]nc(-c3ccncc3)c2c1)[C@@H]1CCN(CC(=O)N2CCN(c3ccc(-c4ncccn4)cc3)CC2)C1
How it was run: as §1

[12] = compound: CC[C@H](CO)Nc1nc(NCc2ccccc2)c2ncn(C(C)C)c2n1 [Roscovitine]
How it was run: as §1

[13] = compound: C[C@@H]1CCN(C(=O)CC#N)C[C@@H]1N(C)c1ncnc2[nH]ccc12 [Tofacitinib]
How it was run: as §1

[14] = compound: CCN(c1cc(-c2ccc(CN3CCOCC3)cc2)cc(C(=O)NCc2c(C)cc(C)[nH]c2=O)c1C)C1CCOCC1 [EPZ-6438]
How it was run: as §1

[15] = compound: CCNC(=O)C[C@@H]1N=C(c2ccc(Cl)cc2)c2cc(OC)ccc2-n2c(C)nnc21 [I-BET-762]
How it was run: as §1

primary DLBCL patient cells (S082)
viability ([1]; 0.0008 µM): 0.93
viability ([1]; 0.004 µM): 0.902
viability ([1]; 0.02 µM): 0.881
viability ([1]; 0.1 µM): 0.945
viability ([1]; 0.5 µM): 0.979
viability ([2]; 0.032 µM): 0.969
viability ([2]; 0.16 µM): 0.938
viability ([2]; 0.8 µM): 0.969
viability ([2]; 4 µM): 0.927
viability ([2]; 20 µM): 1.01
viability ([3]; 0.024 µM): 0.899
viability ([3]; 0.12 µM): 0.975
viability ([3]; 0.6 µM): 0.932
viability ([3]; 3 µM): 0.91
viability ([3]; 15 µM): 0.834
viability ([4]; 0.024 µM): 0.893
viability ([4]; 0.12 µM): 0.906
viability ([4]; 0.6 µM): 0.87
viability ([4]; 3 µM): 0.859
viability ([4]; 15 µM): 0.866
viability ([5]; 0.0032 µM): 0.93
viability ([5]; 0.016 µM): 1.08
viability ([5]; 0.08 µM): 1.14
viability ([5]; 0.4 µM): 1.02
viability ([5]; 2 µM): 1.04
viability ([6]; 0.032 µM): 1.08
viability ([6]; 0.16 µM): 1.02
viability ([6]; 0.8 µM): 0.974
viability ([6]; 4 µM): 1
viability ([6]; 20 µM): 0.664
viability ([7]; 0.032 µM): 1.07
viability ([7]; 0.16 µM): 0.989
viability ([7]; 0.8 µM): 1.06
viability ([7]; 4 µM): 1
viability ([7]; 20 µM): 0.831
viability ([8]; 0.024 µM): 0.849
viability ([8]; 0.12 µM): 1.04
viability ([8]; 0.6 µM): 0.914
viability ([8]; 3 µM): 0.847
viability ([8]; 15 µM): 0.943
viability ([9]; 0.024 µM): 1.04
viability ([9]; 0.12 µM): 1.03
viability ([9]; 0.6 µM): 0.89
viability ([9]; 3 µM): 0.98
viability ([9]; 15 µM): 0.926
viability ([10]; 0.024 µM): 0.976
viability ([10]; 0.12 µM): 0.92
viability ([10]; 0.6 µM): 0.847
viability ([10]; 3 µM): 0.848
viability ([10]; 15 µM): 0.712
viability ([11]; 0.008 µM): 0.875
viability ([11]; 0.04 µM): 0.771
viability ([11]; 0.2 µM): 0.809
viability ([11]; 1 µM): 0.79
viability ([11]; 5 µM): 0.743
viability ([12]; 0.032 µM): 0.912
viability ([12]; 0.16 µM): 0.84
viability ([12]; 0.8 µM): 0.935
viability ([12]; 4 µM): 0.975
viability ([12]; 20 µM): 0.852
viability ([13]; 0.024 µM): 0.93
viability ([13]; 0.12 µM): 0.941
viability ([13]; 0.6 µM): 0.967
viability ([13]; 3 µM): 1.08
viability ([13]; 15 µM): 1.02
viability ([14]; 0.024 µM): 0.978
viability ([14]; 0.12 µM): 0.97
viability ([14]; 0.6 µM): 0.962
viability ([14]; 3 µM): 0.896
viability ([14]; 15 µM): 0.905
viability ([15]; 0.008 µM): 0.89
viability ([15]; 0.04 µM): 0.865
viability ([15]; 0.2 µM): 0.633
viability ([15]; 1 µM): 0.246
viability ([15]; 5 µM): 0.116

primary FL patient cells (S022)
viability ([1]; 0.0008 µM): 0.844
viability ([1]; 0.004 µM): 0.871
viability ([1]; 0.02 µM): 0.904
viability ([1]; 0.1 µM): 0.972
viability ([1]; 0.5 µM): 0.935
viability ([2]; 0.032 µM): 0.988
viability ([2]; 0.16 µM): 1.09
viability ([2]; 0.8 µM): 0.952
viability ([2]; 4 µM): 0.921
viability ([2]; 20 µM): 0.961
viability ([3]; 0.024 µM): 0.902
viability ([3]; 0.12 µM): 0.937
viability ([3]; 0.6 µM): 0.808
viability ([3]; 3 µM): 0.9
viability ([3]; 15 µM): 0.484
viability ([4]; 0.024 µM): 1.07
viability ([4]; 0.12 µM): 0.933
viability ([4]; 0.6 µM): 1.14
viability ([4]; 3 µM): 0.97
viability ([4]; 15 µM): 0.953
viability ([5]; 0.0032 µM): 0.928
viability ([5]; 0.016 µM): 1.08
viability ([5]; 0.08 µM): 1.05
viability ([5]; 0.4 µM): 0.954
viability ([5]; 2 µM): 1
viability ([6]; 0.032 µM): 0.967
viability ([6]; 0.16 µM): 0.975
viability ([6]; 0.8 µM): 0.921
viability ([6]; 4 µM): 0.987
viability ([6]; 20 µM): 0.783
viability ([7]; 0.032 µM): 1.08
viability ([7]; 0.16 µM): 0.896
viability ([7]; 0.8 µM): 1.08
viability ([7]; 4 µM): 1.04
viability ([7]; 20 µM): 0.582
viability ([8]; 0.024 µM): 0.869
viability ([8]; 0.12 µM): 0.929
viability ([8]; 0.6 µM): 1
viability ([8]; 3 µM): 0.873
viability ([8]; 15 µM): 1.03
viability ([9]; 0.024 µM): 1.01
viability ([9]; 0.12 µM): 1.05
viability ([9]; 0.6 µM): 1.07
viability ([9]; 3 µM): 0.933
viability ([9]; 15 µM): 0.964
viability ([10]; 0.024 µM): 1.07
viability ([10]; 0.12 µM): 0.973
viability ([10]; 0.6 µM): 0.986
viability ([10]; 3 µM): 0.865
viability ([10]; 15 µM): 0.33
viability ([11]; 0.008 µM): 0.888
viability ([11]; 0.04 µM): 0.929
viability ([11]; 0.2 µM): 0.895
viability ([11]; 1 µM): 0.911
viability ([11]; 5 µM): 0.96
viability ([12]; 0.032 µM): 1.03
viability ([12]; 0.16 µM): 1.03
viability ([12]; 0.8 µM): 1.05
viability ([12]; 4 µM): 0.992
viability ([12]; 20 µM): 0.781
viability ([13]; 0.024 µM): 0.904
viability ([13]; 0.12 µM): 0.859
viability ([13]; 0.6 µM): 0.936
viability ([13]; 3 µM): 0.914
viability ([13]; 15 µM): 0.894
viability ([14]; 0.024 µM): 1.08
viability ([14]; 0.12 µM): 1.04
viability ([14]; 0.6 µM): 0.978
viability ([14]; 3 µM): 0.997
viability ([14]; 15 µM): 0.892
viability ([15]; 0.008 µM): 0.986
viability ([15]; 0.04 µM): 0.967
viability ([15]; 0.2 µM): 0.945
viability ([15]; 1 µM): 0.894
viability ([15]; 5 µM): 0.882

primary FL patient cells (S087)
viability ([1]; 0.0008 µM): 0.918
viability ([1]; 0.004 µM): 0.907
viability ([1]; 0.02 µM): 0.967
viability ([1]; 0.1 µM): 1.03
viability ([1]; 0.5 µM): 1.01
viability ([2]; 0.032 µM): 0.986
viability ([2]; 0.16 µM): 0.925
viability ([2]; 0.8 µM): 0.951
viability ([2]; 4 µM): 0.996
viability ([2]; 20 µM): 0.985
viability ([3]; 0.024 µM): 1.02
viability ([3]; 0.12 µM): 0.957
viability ([3]; 0.6 µM): 0.923
viability ([3]; 3 µM): 0.967
viability ([3]; 15 µM): 0.645
viability ([4]; 0.024 µM): 0.99
viability ([4]; 0.12 µM): 1.01
viability ([4]; 0.6 µM): 0.99
viability ([4]; 3 µM): 1
viability ([4]; 15 µM): 0.955
viability ([5]; 0.0032 µM): 0.992
viability ([5]; 0.016 µM): 1.02
viability ([5]; 0.08 µM): 1.09
viability ([5]; 0.4 µM): 0.995
viability ([5]; 2 µM): 0.994
viability ([6]; 0.032 µM): 1.02
viability ([6]; 0.16 µM): 0.974
viability ([6]; 0.8 µM): 0.916
viability ([6]; 4 µM): 0.981
viability ([6]; 20 µM): 0.765
viability ([7]; 0.032 µM): 0.991
viability ([7]; 0.16 µM): 0.961
viability ([7]; 0.8 µM): 0.955
viability ([7]; 4 µM): 0.925
viability ([7]; 20 µM): 0.706
viability ([8]; 0.024 µM): 0.885
viability ([8]; 0.12 µM): 0.938
viability ([8]; 0.6 µM): 0.904
viability ([8]; 3 µM): 0.829
viability ([8]; 15 µM): 0.93
viability ([9]; 0.024 µM): 1.09
viability ([9]; 0.12 µM): 1.01
viability ([9]; 0.6 µM): 1.04
viability ([9]; 3 µM): 1.06
viability ([9]; 15 µM): 1.02
viability ([10]; 0.024 µM): 0.979
viability ([10]; 0.12 µM): 0.917
viability ([10]; 0.6 µM): 0.947
viability ([10]; 3 µM): 0.788
viability ([10]; 15 µM): 0.123
viability ([11]; 0.008 µM): 0.961
viability ([11]; 0.04 µM): 0.903
viability ([11]; 0.2 µM): 0.943
viability ([11]; 1 µM): 0.886
viability ([11]; 5 µM): 0.851
viability ([12]; 0.032 µM): 0.924
viability ([12]; 0.16 µM): 0.905
viability ([12]; 0.8 µM): 0.916
viability ([12]; 4 µM): 0.9
viability ([12]; 20 µM): 0.798
viability ([13]; 0.024 µM): 0.972
viability ([13]; 0.12 µM): 0.945
viability ([13]; 0.6 µM): 0.978
viability ([13]; 3 µM): 0.969
viability ([13]; 15 µM): 1
viability ([14]; 0.024 µM): 1.02
viability ([14]; 0.12 µM): 1.01
viability ([14]; 0.6 µM): 1.03
viability ([14]; 3 µM): 0.993
viability ([14]; 15 µM): 0.93
viability ([15]; 0.008 µM): 0.99
viability ([15]; 0.04 µM): 1.02
viability ([15]; 0.2 µM): 0.963
viability ([15]; 1 µM): 0.901
viability ([15]; 5 µM): 0.837
